Experiment [1] relates to 5′-AAAAAAAGAAAAAATIT-3′ (poly AT) DNA duplex. Description: FRET DNA melting, poly AT duplex. In kind it is binding. The note with it: fragments of 15, FIG. 3; duplex not specified. The procedure: FRET DNA melting studies were undertaken on 15 and 16 using two fluorescently labelled sequences. The sequences (FIG. 1) were designed to represent poly AT and poly GC sequences.
The short duplexes used in this FRET study are relatively unstable in the duplex form with a melting temperature below 30° C. so that, in the absence of ligand, a large part of the melting occurs below the starting temperature of the experiment. However, it can be observed that 15 stabilizes the duplex form, producing increases in melting temperature with ΔTm values of […] for 5′-AAAAAAAGAAAAAATIT-3′ (FIG. 2, top panel), and ˜25° C. (FIG. 2, bottom panel).
Oligonucleotides were obtained from ATDbio (Southampton, UK) in lyophilised form. […]
The reaction mixture was comprised of 4 μL of 250 mM phosphate buffer (final concentration of 50 mM), 4 μL flourophor and 4 μL quencher molecule of the appropriate oligonucleotide for a final concentration of 0.2 μM, 4 μL 5 M sodium chloride (final concentration of 1 M NaCl), and 4 μL of distilled H2O. […] This mixture was analysed without prior annealing.
Fluorescence melting profiles were measured using a Roche LightCycler using a total reaction volume of 20 μL. […] Annealing steps and melting steps were all recorded and changes in fluorescence were measured at 520 nm. […]

The next experiment has as its system calf thymus DNA. The note with it: cited from earlier work.

Results on three compounds are retold here after patent US20210371413A1, “POLYCYCLIC AMIDES AS CYTOTOXIC AGENTS” (FEMTOGENIX LIMITED, priority 2018, published 2021).

On to `COc1cc2c(cc1O)N=C[C@@H]1CCCCN1C2=O` [Compound 28, (S)-3-Hydroxy-2-methoxy-7,8,9,10-tetrahydrobenzo[e]-pyrido[1,2-a][1,4]diazepin-12(6aH)-one], for which the “DNA stabilisation (FRET denaturation)” value in experiment [1] is reported as “failed to stabilise DNA”.

Consider `Cn1cc(N)cc1C(=O)Nc1ccc(-c2cc(C(=O)Nc3ccc(N)cc3)n(C)c2)cc1` [Compound 32, 4-Amino-N-(4-(5-((4-aminophenyl)carbamoyl)-1-methyl-1H-pyrrol-3-yl)phenyl)-1-methyl-1H-pyrrole-2-carboxamide], for which the “DNA stabilisation (FRET denaturation)” value in experiment [1] was “failed to stabilise DNA”.

With `Cc1ccc2c(c1O)NC(O)C1CC(/C=C/C(N)=O)=CN1C2=O` (stereo not drawn) [anthramycin], the “thermal stabilization (ΔTm)” value in the experiment with calf thymus DNA is 13.1 °C.
